Patent US10004809B2, “Precise delivery of therapeutic agents to cell mitochondria for anti-cancer therapy” (UNIVERSITY OF GEORGIA RESEARCH FOUNDATION, INC., priority 2013, dated 2018)

What was measured:
Type in all cases: cell-based, Human
[1] = tested on: DU145 cells; test: MTT cytotoxicity assay; settings: DU145 cells, MTT
Experimental: (§1) The cytotoxic behaviors of MITO-DCA, TPP-DCA, Na-DCA, and TPP-Tris-(OH)3 were evaluated using the MTT assay against PC3, DU145, LNCaP, and MSC cells. Cells (2000 cells/well for PC3, DU145, and MSC cells; 5000 cells/well for LNCaP) were seeded on a 96-well plate in 100 μL of desired medium and incubated for 24 h. The cells were treated with different DCA compounds and TPP-Tris-(OH)3 at varying concentrations and incubated for 72 h at 37° C. The cells were then treated with 20 μL of MTT (5 mg/mL in PBS) for 5 h. The medium was removed, the cells were lysed with 100 μL of DMSO, and the absorbance of the purple tormazan was recorded at 550 nm using a Bio-Tek Synergy HT microplate reader. Each well was performed in triplicate. All experiments were repeated three times. Cytotoxicity was expressed as mean percentage increase relative to the unexposed control±SD. Control values were set at 0% cytotoxicity or 100% cell viability. Cytotoxicity data (where appropriate) was fitted to a sigmoidal curve and a three parameters logistic model used to calculate the IC50, which is the concentration of chemotherapeutics causing 50% inhibition in comparison to untreated controls. The mean IC50 is the concentration of agent that reduces cell growth by 50% under the experimental conditions and is the average from at least three independent measurements that were reproducible and statistically significant. The IC50 values were reported at ±99% confidence intervals. This analysis was performed with GraphPad Prism (San Diego, U.S.A).

[2] = tested on: LNCaP cells; test: MTT cytotoxicity assay; settings: LNCaP cells, MTT
Experimental: as §1

[3] = tested on: PC3 cells; test: MTT cytotoxicity assay; settings: PC3 cells, MTT
Experimental: as §1

[4] = tested on: MSC cells; test: MTT cytotoxicity assay on normal cells; settings: 72 h
Experimental: as §1

[5] = tested on: PC3 cells; test: Intracellular lactate determination; settings: concentration not given
Description: Cytosolic metabolism of glucose to pyruvate occurs before its entry into mitochondria for oxidative phosphorylation. However, if not metabolized through oxidative phosphorylation as found in cancer, pyruvate gets converted by lactate dehydrogenase through glycolysis to lactate. Glycolysis in the absence of oxidative phosphorylation in cancer causes rise in lactate concentration. To test the ability of MITO-DCA to switch glucose metabolism from glycolysis to oxidative phosphorylation in cancer cells, intracellular lactate levels in glycolytic PC3 cells were measured and compared the value with those observed in less glycolytic LNCaP and normal MSC cells (FIG. 5A). To understand the importance of mitochondria targeting ligand and to explore the importance of a Tris platform to increase number of DCA molecule per targeting ligand, the parent drug Na-DCA and TPP-DCA were used as controls. Treatment of PC3 cells with 50 μM of MITO-DCA for 6 h reduced the intracellular lactate levels by 58±5%. […] Pronounced lactate concentration differences were observed between […] glycolytic PC3 and healthy MSC cells (FIG. 5A). […] None of the DCA compounds has any effect on the lactate levels in MSC cells (FIG. 5A).
PC3, LNCaP, and MSC cells were seeded at a density of 1×10^6 cells/mL on each well of a 12 well plate and allowed to grow overnight at 37° C. under 5% CO2. Cells were treated with 150 μM Na-DCA, 150 μM TPP-DCA, and 50 μM MITO-DCA for 6 h at 37° C. After 6 h, the media was removed and the cells were homogenized. The lysate was added to the enzyme and substrate working reagent mixture and incubated for 30 min. Lactate concentration was measured using Bio-Tek Synergy HT microplate reader at 450 nm and comparing to a standard curve.

## O=C(CCCCC[P+](c1ccccc1)(c1ccccc1)c1ccccc1)NC(CO)(CO)CO.[Br-] [TPP-Tris-(OH)3]
[1]
  Toxic effects (cytotoxicity profile): did not show any toxic effects
[2]
  Toxic effects (cytotoxicity profile): did not show any toxic effects
[3]
  Toxic effects (cytotoxicity profile): did not show any toxic effects
[4]
  Toxicity in normal MSC cells: did not show any toxic effects
[5]
  Effect on intracellular lactate levels: did not show any effect
